System: mixed culture consortium of three root canal isolates, E. faecalis, L. salivarius and S. gordonii
Assay: biofilm formation in mini-flow chamber system, CSLM with LIVE/DEAD staining
Format: cell-based
Experimental: First, a microbial consortium was created using bacterial strains, E. faecalis, L. salivarius and S. gordonii which were isolated from endodontic therapy associated with persistent infections. The strains were stored at −70° C. using skim milk powder (Oxoid, Cambridge, United Kingdom), diluted in double distilled water and were recovered on blood agar in an atmosphere of 5% CO2 in hydrogen at 37° C. for 24 hours. Then, four to five colonies of each strain were transferred into liquid growth medium (Todd-Hewitt broth) and incubated in an atmosphere of 5% CO2 in hydrogen at 37° C. The optical densities (OD600) of the liquid cultures were monitored until exponential growth was reached, that is, until OD600 values of 0.6±0.1. The cells were harvested by centrifugation (3000 g, five minutes at 4° C.), washed in 10 mM PBS and re-suspended in Todd-Hewitt broth to an approximate cell concentration of 1×108 ml^−1. […]
Then, the mini-flow chamber biofilms were inspected. […] CSLM images were analyzed in 2 and 3-D by using the software bioimage_L. […]
Each experiment was repeated three times and the statistical analysis was performed by two-way analysis of variance (ANOVA). Two-way ANOVA detected any significant variation among biofilms formed on surfaces pre-conditioned with the composition according to the present invention, NaOCl and the uncoated controls. […]

[Na+].[O-]Cl [NaOCl]
viability of biofilm cells (LIVE/DEAD staining) (all tests, proportions of green-viable cells): not compromised
biovolume of biofilms relative to composition-preconditioned surfaces and uncoated controls (preconditioned surfaces): intermediate

Source: patent US20160303000A1, “COMPOSITION AND METHOD FOR REDUCING BACTERIAL BIOFILM FORMATION IN CONNECTION WITH A DENTAL PROCEDURE” (Loma Linda University, priority 2011, published 2016)
